System: rat hepatoma cells
Experiment: TBARS assay of ROS in cell lysates of rat hepatoma cells
Format: cell-based
Settings: fatty acid alone
Procedure, shortened: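 Rat hepatoma cells pre-incubated with DHA alone or DHA plus co-treatments (iron chelator DFX or lipid antioxidants), pulse-labelled 15 min with radiolabelled Met/Cys then chased in unlabelled medium. ROS in cell lysates at end of chase measured by standard TBARS assay, compared against BSA control.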

## CCCCCCCC/C=C\CCCCCCCC(=O)O [OA, oleic acid]
  reactive oxygen species (ROS), TBARS assay, fatty acid compared to BSA: does not increase
